Assay results taken from US11414398B2, “Selective organic cation transporters inhibitors for the treatment of depressive disorders” (priority 2017, dated 2022).
Entries after “also recorded” stand apart in the source; their conditions may differ.

Tests used:
social defeat model = assay: Social defeat model, social interaction test; type: in vivo, mice; conditions: after 3 weeks of treatment; fluoxetine 17 mg/kg, compound (I-1) 0.1 mg/kg as printed
Protocol: (§1) Social defeat model. For social defeat, 8-week-old C57Bl/6J mice were submitted to social defeat stress for 10 consecutive days as described (Berton et al., Science, 2006, 311(5762), 864-8). […] The experimental scheme is represented on FIG. 1H. Social interaction test. The social interaction test was performed in a white open-field (42×42 cm) containing an empty wire mesh cage (10×6.5 cm) located at an extremity of the field in a low luminosity environment (25 lux). Each test mouse was allowed to explore the openfield for two consecutive sessions of 2.5 min. During the second session, an unfamiliar mouse was introduced into the cage. Between the two sessions, the test mouse was placed back into its home cage for approximately one minute. The time spent by the test mouse in the interaction zone, defined as an 8-cm-wide region surrounding the mesh cage, was measured in both sessions by video tracking (Viewpoint, Lyon, France) (FIGS. 1G and 1I).

[1] = Effect on weight, corticosterone-induced depression; type: in vivo, mice; conditions: weight measured daily; I-1 0.1 mg/kg/day, fluoxetine 15 mg/kg/day or both, i.p.
Protocol: Corticosterone-induced depression. […] The experimental scheme is represented on FIG. 1A. Effect on weight. The weight of tested mice was measured daily in the morning (FIG. 2D).

[2] = mouse, in vivo
Protocol: (§2) Corticosterone-induced depression. To induce a chronic depression-like state, individually housed mice were administered corticosterone ([…]; Sigma-Aldrich) dissolved in 0.45% (wt/vol) hydroxypropyl-b-cyclodextrin (Sigma-Aldrich) as in (Bacq et al., Mol. Psychiatry, 2012, 17, 926-939). […] The mice were tested successively for coat sate, sucrose consumption, elevated O-maze, object location test and social interaction, before antidepressant treatment, and after 10 days and 3 weeks of treatment. The experimental scheme is represented on FIG. 1A.
Blood parameter evaluation. Blood was collected in lithium heparin after the 3 weeks of treatment. Hemograms were performed with a Siemens ADVIAZ 120 apparatus. For biochemistry, blood was centrifuged at 2000 g for 10 min at +4° C. and supernatant was analyzed with a COBAS 6000 (Roche) apparatus.

[3] = Metabolic conversion in microsomal fraction; type: in vitro ADME; conditions: 100 μM, rat liver microsomes 1 mg protein/mL, NADPH generating system, 37° C.
Protocol: Method. […] The reactions were stopped by adding one-half volume of CH3CN containing 8% CH3COOH and the proteins were removed by centrifugation at 13000 g. […] B=CH3CN/HCOOH (999:1)) at 200 μL/min. Mass spectra were obtained by electrospray ionization (ESI) in positive ionization mode detection under the following conditions: source parameters, […], 15; auxiliary gas, 5; spray voltage, 3.2 kV; capillary temperature, 275° C.; and m/z range for MS recorded generally between 150 and 900. For all products, the indicated parent ions corresponded to [M+H]^+.

[4] = test system: corticosterone-induced depression model; assay: Coat state, corticosterone-induced depression; type: in vivo, mice; conditions: both time points; i.p. daily: I-1 0.1 mg/kg/day, fluoxetine 15 mg/kg/day or both
Protocol: Corticosterone-induced depression. […] The experimental scheme is represented on FIG. 1A. Coat state. The coat state of each animal was assessed weekly as a measure of motivation toward self-care. It was evaluated as the sum of the score of different parts of the body, ranging between 0 for a well-groomed coat and 1 for an unkempt coat for head, neck, dorsal/ventral coat, tail and forepaws/hindpaws (FIG. 1B).

[5] = Acute administration: locomotor activity and anxiety level; type: in vivo
[6] = Forced swim test, acute administration; type: in vivo
[7] = test system: corticosterone-induced depression model; assay: Sucrose preference test, corticosterone-induced depression; type: in vivo, mice; conditions: i.p. daily: I-1 0.1 mg/kg/day, fluoxetine 15 mg/kg/day or both
Protocol: Corticosterone-induced depression. […] The experimental scheme is represented on FIG. 1A. Sucrose preference test. Singled-house mice were first habituated for 48 h to drink water from two bottles.

[8] = test system: corticosterone-induced depression model; assay: Open-field test, corticosterone-induced depression; type: in vivo, mice
Protocol: as §2
Open-field test. The open field consisted of a white Plexiglas field (100×100×30 cm) with the center brightly illuminated (500 lux). General locomotor activity in the center and periphery of the open field were scored for 9 min. The time and number of entries in the center zone (60×60 cm) were evaluated as an index of anxiety-related response (FIG. 2B).

[9] = test system: corticosterone-induced depression model; assay: Elevated O-maze test, corticosterone-induced depression; type: in vivo, mice; conditions: after 21 days; i.p. daily: I-1 0.1 mg/kg/day, fluoxetine 15 mg/kg/day or both
Protocol: Corticosterone-induced depression. […] The experimental scheme is represented on FIG. 1A. Elevated O-maze test. The elevated O-maze consisted of an annular runway positioned 40 cm above the floor and divided into two opposing 90° closed sectors and two 90° open sectors. The mice were individually placed in the closed sector and their behavior recorded over a 5-min period. The time spent in each sector and the number of sector entries (a sector entry was defined as all four of the paws being placed in a sector) were determined by video tracking (Viewpoint, Lyon, France) (FIGS. 1D and 1E).

[10] = test system: autophagy and proteasome pathways in the brain; assay: Toxicity: cell death pathways in the brain, Western blots; conditions: mouse, in vivo
Protocol: as §2
Cell death pathways in the brain—Western blots. […] Samples were homogenized by sonication in 2 vol of ice-cold phosphate-buffered saline containing 1% Triton X-100, protease inhibitors (Complete Protease Inhibitor Cocktail, Roche Diagnostics, Basel, Switzerland) and phosphatase inhibitors (Phosphatase Inhibitor Cocktail 3; Sigma-Aldrich). Protein concentrations were determined by Bradford's method. Proteins samples (15 μg) suspended in NuPage LDS sample buffer (Invitrogen, Carlsbad, Calif., USA) were separated by Bis-Tris sodium dodecyl sulfate polyacrylamide gel electrophoresis (10% gels) and transferred onto nitrocellulose membranes (Invitrogen). Transfer efficacy was controlled by Ponceau S staining. Unspecific binding sites were blocked in Tris-buffered saline containing 0.1% Tween-20 and 5% nonfat milk and membranes were immunoprobed with antibodies against β-actin ( 1/2500) and β-catenin ( 1/300) from Sigma-Aldrich or LC3B ( 1/5000) from Abcam. Membranes were incubated with infrared-labeled secondary antibodies (IRDye 700DX and IRDye 800CW; 1/5000; Rockland, Gilbertsvillle, Pa., USA). Immunoblotting was quantified with the Odyssey Infrared Imaging System and Application Software version 3.0 (LI-COR Biosciences, Lincoln, Nebr., USA).

[11] = test system: corticosterone-induced depression model; assay: Social interaction test, corticosterone-induced depression; type: in vivo, mice; conditions: 21 days of treatment; compared to corticosterone
Protocol: as §1, with “Corticosterone-induced depression.” for “Social defeat model. For social defeat, 8-week-old C57Bl/6J mice were submitted to social defeat stress for 10 consecutive days as described (Berton et al., Science, 2006, 311(5762), 864-8).”, “1A.” for “1H.”

[12] = compared to fluoxetine-treated and fluoxetine plus compound (I-1) treated groups

In the case of COc1ccc2c(c1)CC/C(=C/c1cc[n+](C(C)C)c3ccccc13)N2C(C)C [Compound I-1, (Z)-1-isopropyl-4-((1-isopropyl-6-methoxy-3,4-dihydroquinolin-2(1H)-ylidene)methyl)quinolin-1-ium Iodide], the “reversal of social aversion (time in interaction zone with target)” value (social defeat model) is reported as “not by compound (I-1)”, the effect on weight [1] is reported as “no significant effect; also recorded: did not decrease weight” and the ALP [2] is reported as 53.3 ± 2.2 U/L. The ALT [2] was 49.5 ± 4.2 U/L, the AST [2] was 164.8 ± 6.2 U/L and the Creatinine [2] was 0.43 ± 0.06 mg/dL. The Hematies [2] was 8.96 ± 0.5 T/L, the Leucocytes [2] was 2.89 ± 0.4 g/L and the Platelets [2] was 254.1 ± 56.5. For the same compound, the Total bilirubin [2] was 0.12 ± 0.01 mg/dL, the Urea [2] was 61.7 ± 1.9 mg/dL and the “hepatotoxicity compared with fluoxetine” value [2] was “less hepatotoxicity”. For the same compound, the “metabolisation on incubation with microsomes” value [3] was “led to the metabolisation”, the coat state [4] was “improved coat state at both time points” and the anxiety level [5] was “no effect”. For the same compound, the locomotor activity [5] was “no effect”, the “immobility time in the forced swim test” value [6] was “moderate but reproducible lowering (antidepressant-like) action” and the sucrose preference ([7]; 11 days of treatment) was “significantly increased sucrose preference at 11 days”. For the same compound, the sucrose preference ([7]; 21 days of treatment) was “significantly increased sucrose preference at 21 days”, the “locomotor activity at the periphery of the open field” value ([8]; compared to corticosterone, I-1 0.1 mg/kg/day, fluoxetine 15 mg/kg/day or both, i.p.) was “significant effect; also recorded: restored normal locomotor activity” and the “locomotor activity in the center of the open field” value [8, 12] was “significant increase”. For the same compound, the “time in the center of the open field” value [8, 12] was “significant increase”, the “latency to enter the open zone of the elevated O-maze” value [9] was “decreased the latency to enter this zone” and the “time in the open zone of the elevated O-maze” value [9] was “increased the time in the open zone”. The LC3II/LC3I ratios [10] was “comparable LC3II/LC3I ratios”, the “autophagy and proteasome pathways in the brain” value [10] was “does not alter autophagy and proteasome pathways in the brain” and the β-catenin levels [10] was “comparable”. The “interaction time in social interaction test” value [11] was “significant effects on interaction time”.
